pIC50: −log10 of the molar value. Several values for one entry are separate records, joined by “and”; a condition that tells them apart may be missing. Equal entries are not always repeated. Where two headings read alike, the source gives them in different places.
Assays:
12-lipoxygenase = biological target: T1, 12-lipoxygenase (Rattus norvegicus, UniProt F1LQ70); assay: 12-lipoxygenase inhibition assay (rat platelet supernatant, arachidonic acid, HPLC of 12-HETE); assay type: biochemical, Sprague Dawley male rat (platelets); settings: for maximum inhibition ratio of 12-lipoxygenase / inhibition at 10 µM: at a compound concentration of 10^-5 M, IC50 not obtained; for maximum inhibition ratio of 12-lipoxygenase: 10 µM; for inhibition at 10 µM: read-out: maximum inhibition ratio of 12-lipoxygenase
T1 construct: The platelets were then sonicated at 4° C. and centrifuged at 100,000×g for 30 minutes to obtain a supernatant as a 12-lipoxygenase enzyme solution; from tissue; host or cells: Sprague Dawley rat platelets (from aortic blood), sonicated, 100,000 x g supernatant
T1 sequence (F1LQ70 1-663): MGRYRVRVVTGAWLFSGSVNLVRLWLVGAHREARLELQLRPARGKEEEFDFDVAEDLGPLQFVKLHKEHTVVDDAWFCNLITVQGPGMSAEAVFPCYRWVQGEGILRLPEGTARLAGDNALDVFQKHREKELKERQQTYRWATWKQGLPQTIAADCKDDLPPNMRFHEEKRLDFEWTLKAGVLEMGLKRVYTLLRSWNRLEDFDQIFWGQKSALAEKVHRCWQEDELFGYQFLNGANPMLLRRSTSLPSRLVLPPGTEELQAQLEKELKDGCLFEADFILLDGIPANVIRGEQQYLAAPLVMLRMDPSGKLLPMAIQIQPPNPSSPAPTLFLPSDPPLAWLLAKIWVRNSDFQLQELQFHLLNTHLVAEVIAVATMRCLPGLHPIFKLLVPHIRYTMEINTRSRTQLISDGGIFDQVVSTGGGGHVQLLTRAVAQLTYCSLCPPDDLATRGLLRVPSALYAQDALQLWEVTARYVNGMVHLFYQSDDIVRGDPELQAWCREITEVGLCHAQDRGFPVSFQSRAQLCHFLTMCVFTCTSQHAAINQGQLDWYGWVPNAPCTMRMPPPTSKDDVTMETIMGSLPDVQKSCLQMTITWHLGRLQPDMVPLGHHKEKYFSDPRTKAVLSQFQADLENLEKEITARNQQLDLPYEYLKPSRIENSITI
Protocol: A Sprague Dawley male rat was anesthetized with ether and bled from abdominal aorta using a syringe filled with about one-tenth volume of 3.8% sodium citrate. Blood was centrifuged at 180×g for 15 minutes at room temperature to pellet sanguineous platelet blood plasma. The resultant supernatant was again centrifuged at 1800×g for 10 minutes at 4° C. The pelleted platelets were rinsed twice with a washing buffer (50 mM Tris-hydrochloric acid buffer containing 154 mM sodium chloride and 2 mM EDTA, pH: 7.4). The platelets were then suspended in one-twentieth volume of a resuspension buffer (50 mM Tris-hydrochloric acid buffer containing 154 mM sodium chloride and 5.5 mM glucose, pH: 7.4). The platelets were then sonicated at 4° C. and centrifuged at 100,000×g for 30 minutes to obtain a supernatant as a 12-lipoxygenase enzyme solution.
The enzyme solution described above was diluted with the resuspension buffer above mentioned to prepare an assay solution so as to include about 2 mU/ml of 12-lipoxygenase. To an aliquot (300 μl) of the assay solution was added 1 μl of a 3 mM indomethacin-ethanol solution, 1 μl of an aqueous 300 mM reduced-glutathione solution, and 3 μl of varied concentrated test compounds solution in ethanol. The resultant mixture was incubated at 37° C. for 5 minutes. Subsequently, 3 μl of a 2.5 mM arachidonic acid solution in ethanol was added to incubate with for another 5 minutes at 37° C., then the reaction was ceased by the addition of 600 μl of methanol. After being centrifuged at 10,000×g for 5 minutes, 12-hydroxyeicosatetraenoic acid recovered in the supernatant was separated with a reverse phase high-performance liquid chromatography equipped with a C-18 column and measured the absorption of diene at 234 nm to quantify the activity of 12-lipoxygenase.
As test compounds were used the compounds of the present invention prepared in the same methods as in Example 4, Example 5 and Example 8 and the compounds prepared in the same methods as in Comparative Examples 1-5, and as a control was used esculetin (purchased from Tokyo Kasei), a known compound represented by the following formula: [drawing 33] and the test was conducted at varied concentrations.
The enzyme solution was prepared according to the same manner as in Test Example 1.
The inhibition assay was performed according to the same method as described in Test Example 1 except that the same samples used in measurement of the 5-lipoxygensase activity were used to estimate IC50 values. […]
They were measured in the same method as in Test Example 1.

5-lipoxygenase = biological target: T2, 5-lipoxygenase (Rattus norvegicus, UniProt P12527); assay: 5-lipoxygenase inhibition assay (RBL-1 supernatant, arachidonic acid, HPLC of 5-HETE); assay type: biochemical, rat (basophilic leukemia cells RBL-1, ATCC CRL1378)
T2 construct: host or cells: RBL-1 (rat basophilic leukemia cells)
T2 sequence (P12527 1-673): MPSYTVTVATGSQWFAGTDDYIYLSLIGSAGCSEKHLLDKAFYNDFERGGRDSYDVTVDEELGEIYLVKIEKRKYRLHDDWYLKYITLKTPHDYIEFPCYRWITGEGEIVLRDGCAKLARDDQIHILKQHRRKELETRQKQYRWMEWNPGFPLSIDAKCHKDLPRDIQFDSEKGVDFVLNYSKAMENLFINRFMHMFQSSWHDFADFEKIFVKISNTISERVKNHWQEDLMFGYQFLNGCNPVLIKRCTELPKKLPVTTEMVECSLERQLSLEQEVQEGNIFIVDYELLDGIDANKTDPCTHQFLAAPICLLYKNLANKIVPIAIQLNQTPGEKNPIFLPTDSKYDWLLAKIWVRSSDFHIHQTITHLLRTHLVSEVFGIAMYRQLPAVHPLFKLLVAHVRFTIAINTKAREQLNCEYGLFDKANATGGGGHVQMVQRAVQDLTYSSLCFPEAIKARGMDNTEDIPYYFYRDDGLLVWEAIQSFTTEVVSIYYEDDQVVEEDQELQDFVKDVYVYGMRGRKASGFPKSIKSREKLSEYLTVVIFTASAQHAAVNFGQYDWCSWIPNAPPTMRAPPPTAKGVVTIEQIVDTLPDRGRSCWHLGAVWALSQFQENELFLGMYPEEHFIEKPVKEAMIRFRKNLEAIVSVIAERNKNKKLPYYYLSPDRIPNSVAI
Protocol: Rat basophilic leukemia cells (RBL-1, ATCC CRL1378) were cultured in Dulbecco modified Eagle's medium containing 10% new-born bovine serum.
Cultured cells were collected and washed twice with a 50 mM Tris-buffered saline (containing 154 mM sodium chloride, pH: 7.4, hereinafter described as TBS). The cell suspension (4×10^7 cells/ml) was then sonicated and centrifuged at 10,000×g for 10 minutes.
The resultant supernatant was used to prepare an assay solution.
To an aliquot (15 μl) of the enzyme solution (40 mU/ml equivalent) was added 185 μl of TBS, 50 μl of a 2 mM adenosine triphosphate in TBS, 50 μl of a 12 mM calcium chloride in TBS, 1 μl of a 3 mM indomethacin in ethanol solution, 1 μl of an aqueous 300 mM reduced glutathione solution, and 3 μl of varied concentrated test compounds solution in ethanol. The resultant mixture was incubated at 37° C. for 5 minutes. Subsequently, 3 μl of a 2.5 mM arachidonic acid solution in ethanol was added to incubate the mixture for 2 minutes at 37° C. The reaction was ceased by the addition of 600 μl of methanol. After being centrifuged at 10,000×g for 5 minutes, 5-hydroxyeicosatetraenoic acid recovered in the supernatant was separated with a reverse phase high-performance liquid chromatography equipped with a C-18 column and measured the absorption of diene at 234 nm to quantify the activity of the enzyme.
Using the compounds of the present invention prepared in the same manner as in Examples 1-30, and Examples 33-36 as test samples and known baicalein (purchased from Wako Junyaku Kogyo) represented by the following formula 30 as a control: [drawing 34] the tests were performed for dose dependent inhibition to estimate IC50 values
It was prepared in the same method as in Test Example 2.
They were measured in the same method as in Test Example 2.

[1] = Test Example 2, Table 2, read-out: IC50 value of 12-lipoxygenase
[2] = Test Example 3, Table 11, value belongs to the deacylated compound, read-out: 12-lipoxygenase inhibiting activities of deacylated compounds (IC50 values)
[3] = Test Example 2, Table 2, read-out: IC50 value of 5-lipoxygenase
[4] = Test Example 1, Table 1 and text, read-out: 12-lipoxygenase IC50 value
[5] = Test Example 5, Table 22, read-out: 12-Lipoxygenase inhibiting activity IC50 value
[6] = Test Example 5, Table 22, read-out: 5-Lipoxygenase inhibiting activity IC50 value

SMILES	pIC50 (12-lipoxygenase; [1])	pIC50 (5-lipoxygenase; [3])	also measured
CCc1ccc(-c2cc3ccc(O)c(O)c3oc2=O)cc1 [Example 19]	7.85	6.60	
O=c1oc2cc(O)ccc2cc1-c1ccc(Cl)cc1 [Comp. Example 2, reference compound]			maximum inhibition ratio of 12-lipoxygenase (12-lipoxygenase; listed as Comparative Example 2, 10 µM): less than 10%; inhibition at 10 µM (12-lipoxygenase): 7%
O=c1oc2c(O)c(O)ccc2cc1-c1ccc(Br)cc1 [Example 25, 3-(4-bromophenyl)-7,8-dihydroxycoumarin]	7.89	6.38	
Cc1ccc(-c2cc3cc(O)c(O)cc3oc2=O)cc1 [Example 11]	7.96	6.74	
COc1ccc(-c2cc3ccc(O)c(O)c3oc2=O)cc1 [Example 27, 3-(4-methoxyphenyl)-7,8-dihydroxycoumarin]	7.57	6.18	
O=c1oc2cc(O)c(O)cc2cc1-c1ccc2ccccc2c1 [Example 62]			pIC50 (12-lipoxygenase; [5]): 8.34; pIC50 (5-lipoxygenase; [6]): 7.19
O=c1oc2cc(O)c(O)cc2cc1-c1ccc(C(F)(F)F)cc1 [Example 14, 3-(4-trifluoromethylphenyl)-6,7-dihydroxycoumarin]	7.89	6.57	
O=c1oc2cc(O)c(O)cc2cc1-c1ccc(Br)cc1 [Example 1]	8.36	6.72	
O=c1oc2c(O)c(O)ccc2cc1-c1ccc2ccccc2c1 [Example 61]			pIC50 (12-lipoxygenase; [5]): 7.47; pIC50 (5-lipoxygenase; [6]): 6.64
O=c1oc2c(O)c(O)ccc2cc1-c1ccc(Cl)cc1 [Example 4, 3-(4-chlorophenyl)-7,8-dihydroxycoumarin]	8.12	6.32	pIC50 (12-lipoxygenase; [4]): 8.12 and ~9.00; pIC50 (12-lipoxygenase; [2]): 8.12
O=c1oc2cc(O)c(O)cc2cc1-c1cc(Br)cs1 [Example 34, 3-(4-bromothiophen-2-yl)-6,7-dihydroxycoumarin]	8.28	6.82	pIC50 (12-lipoxygenase; [2]): 8.28
O=c1oc2c(O)c(O)ccc2c(-c2ccccc2)c1-c1ccccc1 [Comp. Example 4, reference compound]			pIC50 (12-lipoxygenase; [4]): 6.92
O=c1oc2cc(O)c(O)cc2cc1-c1ccc(Cl)cc1 [Example 8, 3-(4-chlorophenyl)-6,7-dihydroxycoumarin]	8.15	6.59	pIC50 (12-lipoxygenase; [4]): 8.15 and ~9.00; pIC50 (12-lipoxygenase; [2]): 8.15
O=c1oc2cc(O)c(O)cc2cc1-c1csc2ccccc12 [Example 64]			pIC50 (12-lipoxygenase; [5]): 8.00; pIC50 (5-lipoxygenase; [6]): 6.74
COc1ccc2cc(-c3ccccc3)c(=O)oc2c1OC [Comp. Example 1, reference compound]			maximum inhibition ratio of 12-lipoxygenase (12-lipoxygenase; listed as Comparative Example 1, 10 µM): less than 10%; inhibition at 10 µM (12-lipoxygenase): 5%
Cc1ccc(-c2cc3cc(O)c(O)cc3oc2=O)o1 [Example 36, 3-(5-methylfuran-2-yl)-6,7-dihydroxycoumarin]	7.85	6.60	
O=c1oc2c(O)c(O)ccc2cc1-c1csc2ccccc12 [Example 63]			pIC50 (12-lipoxygenase; [5]): 7.96; pIC50 (5-lipoxygenase; [6]): 6.72
O=c1oc2cc(O)c(O)cc2cc1-c1ccccc1 [Example 6, 3-phenyl-6,7-dihydroxycoumarin]	7.80	6.57	
O=c1oc2c(O)c(O)ccc2cc1-c1ccc(O)cc1 [Comp. Example 5, reference compound]			12-lipoxygenase inhibitory activity (in words) (12-lipoxygenase): decreases greatly; pIC50 (12-lipoxygenase; [4]): 5.96
O=c1oc2cc(O)c(O)cc2cc1-c1cccs1 [Example 15, 3-(thiophen-2-yl)-6,7-dihydroxycoumarin]	7.68	6.48	
O=c1oc2c(O)c(O)ccc2cc1-c1ccc([N+](=O)[O-])cc1 [Example 23, 3-(4-nitrophenyl)-7,8-dihydroxycoumarin]	7.47	6.28	

Further lines, with some results ahead:

pIC50 (12-lipoxygenase; [1])	pIC50 (5-lipoxygenase; [3])	SMILES	also measured
8.02	6.57	O=c1oc2c(O)c(O)ccc2cc1-c1cccc(Cl)c1 [Example 22, 3-(3-chlorophenyl)-7,8-dihydroxycoumarin]	pIC50 (12-lipoxygenase; [2]): 8.02
8.04	6.39	Cc1c(-c2ccc(Cl)cc2)c(=O)oc2cc(O)c(O)cc12 [Example 5, 3-(4-chlorophenyl)-4-methyl-6,7-dihydroxycoumarin]	pIC50 (12-lipoxygenase; [4]): 8.04; pIC50 (12-lipoxygenase; [2]): 8.04
7.66	6.38	O=c1oc2cc(O)c(O)cc2cc1-c1ccsc1 [Example 16]	
8.24	6.85	O=c1oc2cc(O)c(O)cc2cc1-c1ccc(I)cc1 [Example 10, 3-(4-iodophenyl)-6,7-dihydroxycoumarin]	pIC50 (12-lipoxygenase; [2]): 8.24
7.96	6.55	Cc1cccc(-c2cc3cc(O)c(O)cc3oc2=O)c1 [Example 12]	

— patent publication US5574062A, “Coumarin derivative and use thereof” (Morinaga Milk Industry Co., Ltd., priority 1993, dated 1996)
